Measurements from EPA's ToxRefDB 2.

How the values were obtained:
rabbit = settings: Prenatal developmental toxicity study, new zealand white, Oral, Gavage/Intubation, dose end: 18 GD
dog = settings: Chronic toxicity, beagle, Oral, Gavage/Intubation, dose end: 12 month, group: systemic
mouse [1] = settings: Carcinogenicity; cd1; Oral; Feed; dose end: 78 week; group: systemic; systemic / in life observation / body weight / body weight + systemic / in life observation / body weight / body weight gain
rat [2] = settings: Subchronic dermal toxicity, sprague dawley, Topical, dose end: 90 day, group: systemic
rat [3] = settings: Multigenerational reproductive toxicity study, sprague dawley, Oral, Feed, dose end: 2 generation
rat [4] = settings: Combined chronic toxicity/carcinogenicity; sprague dawley; Oral; Feed; dose end: 104 week; group: systemic; systemic / pathology microscopic / lymph node / hemorrhage + systemic / pathology microscopic / lymph node / hemosiderosis + systemic / …
rat [5] = settings: Prenatal developmental toxicity study, sprague dawley, Oral, Gavage/Intubation, dose end: 15 GD
rat [6] = settings: Subchronic oral toxicity in rodents, sprague dawley, Feed, dose end: 90 day, group: systemic, systemic / in life observation / body weight / body weight + systemic / in life observation / body weight / body weight gain + systemic / in…
rat [7] = settings: Peri- and post-natal toxicity study (Segment III); sprague dawley; Oral; Gavage/Intubation; dose end: 40 PND; group: parental; systemic / clinical chemistry / estradiol / estradiol + systemic / organ weight / adrenal gland / absolute
mouse [8] = settings: Carcinogenicity, b6c3f1, Oral, Feed, dose end: 103 week, group: systemic
rat [9] = settings: Subchronic oral toxicity in rodents, fischer, Feed, dose end: 13 week, group: systemic, systemic / in life observation / body weight / body weight
rat [10] = settings: Carcinogenicity; fischer; Oral; Feed; dose end: 103 week; group: systemic; systemic / in life observation / body weight / body weight
mouse [11] = settings: Sub-acute repeat dose toxicity, b6c3f1, Oral, Feed, dose end: 14 day, group: systemic
rat [12] = settings: Sub-acute repeat dose toxicity, fischer, Oral, Feed, dose end: 14 day, group: systemic
[13] = group: developmental, systemic / in life observation / body weight / fetal weight
[14] = group: maternal, systemic / in life observation / body weight / body weight gain + systemic / in life observation / clinical signs / abnormal respiratory …
[15] = group: maternal, systemic / in life observation / clinical signs / defecation (diarrhea) + systemic / in life observation / clinical signs / oral discharge
[16] = systemic / clinical chemistry / cholesterol / cholesterol + systemic / in life observation / clinical signs / emesis + systemic / in life …
[17] = systemic / pathology microscopic / skin / acanthosis
[18] = group: offspring, systemic / in life observation / body weight / offspring (pup) weight + systemic / in life observation / body weight / offspring (pup) …
[19] = group: parental, systemic / in life observation / body weight / body weight + systemic / in life observation / body weight / body weight gain + systemic / in…
[20] = group: developmental, developmental / developmental malformation / bone / [other] + developmental / developmental malformation / bone / incomplete ossification + …
[21] = group: maternal, systemic / in life observation / clinical signs / abnormal respiratory sounds
[22] = group: maternal, systemic / in life observation / clinical signs / abnormal respiratory sounds + systemic / in life observation / body weight / body weight …
[23] = systemic / pathology microscopic / liver / hepatocellular adenoma + systemic / pathology microscopic / liver / hepatocellular carcinoma
[24] = systemic / in life observation / body weight / body weight + systemic / in life observation / body weight / body weight gain + systemic / in…
[25] = systemic / in life observation / body weight / body weight gain + systemic / in life observation / mortality / mortality + systemic / in …

CCCCCCCCCC[N+](C)(C)CCCCCCCCCC.[Cl-] [Didecyldimethylammonium chloride] was tested, and the LEL (rabbit; [13]) was 10 mg/kg/day, the LOAEL (rabbit; [13]) was 10 mg/kg/day and the NEL (rabbit; [13]) was 3 mg/kg/day. It also gave an NOAEL (rabbit; [13]) of 3 mg/kg/day, an LOAEL (rabbit; [14]) of 3 mg/kg/day and an NOAEL (rabbit; [14]) of 1 mg/kg/day. For the same compound, the LEL (rabbit; [15]) was 1 mg/kg/day, the NEL (rabbit; [15]) was under 1 mg/kg/day and the LOAEL (dog; [16]) was 20 mg/kg/day. For the same compound, the NEL (dog; [16]) was 3 mg/kg/day, the NOAEL (dog; [16]) was 10 mg/kg/day and the LEL (dog; systemic / in life observation / clinical signs / emesis + systemic / in life observation / clinical signs / mucoid stools + systemic / in …) was 10 mg/kg/day. For the same compound, the LEL (mouse [1]) was 156 mg/kg/day, the LOAEL (mouse [1]) was 156 mg/kg/day and the NEL (mouse [1]) was 76.3 mg/kg/day. The NOAEL (mouse [1]) was 76.3 mg/kg/day, the LEL (rat [2]; [17]) was 2 mg/kg/day and the NEL (rat [2]; [17]) was under 2 mg/kg/day. It also gave an LOAEL (rat [2]; systemic / pathology microscopic / skin / acanthosis + systemic / pathology microscopic / skin / inflammation) of 6 mg/kg/day, an NOAEL (rat [2]; systemic / pathology microscopic / skin / acanthosis + systemic / pathology microscopic / skin / inflammation + systemic / in life …) of 2 mg/kg/day and an LEL (rat [3]; [18]) of 101 mg/kg/day. It also gave an LOAEL (rat [3]; [18]) of 101 mg/kg/day, an NEL (rat [3]; [18]) of 48.2 mg/kg/day and an NOAEL (rat [3]; [18]) of 48.2 mg/kg/day. The LEL (rat [3]; [19]) was 101 mg/kg/day, the LOAEL (rat [3]; [19]) was 101 mg/kg/day and the NEL (rat [3]; [19]) was 48.2 mg/kg/day. It also gave an NOAEL (rat [3]; [19]) of 48.2 mg/kg/day, an LEL (rat [4]) of 64 mg/kg/day and an LOAEL (rat [4]) of 64 mg/kg/day. It also gave an NEL (rat [4]) of 32 mg/kg/day, an NOAEL (rat [4]) of 32 mg/kg/day and an LEL (rat [5]; [20]) of 20 mg/kg/day. The LOAEL (rat [5]; [20]) was 20 mg/kg/day, the NEL (rat [5]; [20]) was 10 mg/kg/day and the NOAEL (rat [5]; [20]) was 10 mg/kg/day. For the same compound, the LEL (rat [5]; [21]) was 10 mg/kg/day, the LOAEL (rat [5]; [21]) was 10 mg/kg/day and the NEL (rat [5]; [22]) was 1 mg/kg/day. For the same compound, the NOAEL (rat [5]; [22]) was 1 mg/kg/day, the LEL (rat [6]) was 175 mg/kg/day and the LOAEL (rat [6]) was 175 mg/kg/day. It also gave an NEL (rat [6]) of 60.7 mg/kg/day and an NOAEL (rat [6]) of 60.7 mg/kg/day.

Compound CCOC(=O)c1ccc(O)cc1 [Ethylparaben] has an LEL (rat [7]) of 1000 mg/kg/day, an LOAEL (rat [7]) of over 1000 mg/kg/day and an NEL (rat [7]) of 250 mg/kg/day. It also gave an NOAEL (rat [7]) of at least 1000 mg/kg/day.

With C=CCc1ccc(O)c(OC)c1 [Eugenol] the LOAEL (mouse [8]; systemic / in life observation / body weight / body weight) was 900 mg/kg/day, the NOAEL (mouse [8]; systemic / in life observation / body weight / body weight + systemic / pathology microscopic / liver / adenoma/carcinoma combined) was 450 mg/kg/day and the LEL (mouse [8]; [23]) was 450 mg/kg/day. The NEL (mouse [8]; [23]) was under 450 mg/kg/day, the LEL (rat [9]) was 300 mg/kg/day and the LOAEL (rat [9]) was 625 mg/kg/day. The NEL (rat [9]) was 150 mg/kg/day, the NOAEL (rat [9]) was 300 mg/kg/day and the LEL (rat [10]) was 625 mg/kg/day. For the same compound, the LOAEL (rat [10]) was 625 mg/kg/day, the NEL (rat [10]) was 300 mg/kg/day and the NOAEL (rat [10]) was 300 mg/kg/day. The LEL (mouse [11]; systemic / in life observation / body weight / body weight + systemic / in life observation / body weight / body weight gain) was 1880 mg/kg/day, the LOAEL (mouse [11]; [24]) was over 15000 mg/kg/day and the NEL (mouse [11]; [24]) was 900 mg/kg/day. The NOAEL (mouse [11]; [24]) was at least 15000 mg/kg/day, the LEL (rat [12]; systemic / in life observation / body weight / body weight gain) was 1250 mg/kg/day and the NEL (rat [12]; systemic / in life observation / body weight / body weight gain + systemic / in life observation / mortality / mortality) was 625 mg/kg/day. The LOAEL (rat [12]; [25]) was over 5000 mg/kg/day and the NOAEL (rat [12]; [25]) was at least 5000 mg/kg/day.
